According to patent publication US20150148405A1, “Expression Construct for a Lin28-Resistant Let-7 Precursor MicroRNA” (THE JOHNS HOPKINS UNIVERSITY, priority 2012, published 2015):
Numbered stars: 1 amine (or outer) side, 2 acyl side, 3 side chain; on linkers, the order of the positions; unused ones are H or OH. Bridge positions count the residues as written; N and C are the ends. Square brackets hold non-standard residues; d marks the D form. Peptide text beside a SMILES is read from it. I, II: the chains in the order shown. Actinocin(9to1) = Cc1c2oc3c(C)ccc(C(=O)[*:1])c3nc-2c(C(=O)[*:2])c(N)c1=O; NMeV = CN[C@H](C(=O)O)C(C)C; Sar = CNCC(=O)O

Experiments:
Assay type in all cases: cell-based, mouse
[1] = test system: hippocampal pyramidal neurons; assay: Live cell imaging of P-body numbers (GFP-Dcp1a); conditions: 15 μM
Description: Dissociated hippocampal cultures were prepared from postnatal day 0 (P0) mice as previously described (Meffert et al., 2003). Knockdown was by lentiviral-mediated delivery of shRNA to cultures at multiplicity of infection of 5-10, 48 hr before imaging or 4-5 days for GW182. Cultures were preincubated 10-20 min and mock- or BDNF-stimulated (100 ng/mL BDNF) in the presence of Actinomycin-D (0.5 μg/mL), unless indicated otherwise.
Confocal images of hippocampal pyramidal neurons were acquired on either a Yokogawa spinning disk (Zeiss) at 37° C. (live cells), or a LSM5 Pascal system (fixed cells). Laser power and exposure time were adjusted to minimize photobleaching and avoid saturation. […]
Dissociated hippocampal cultures were prepared from postnatal day 0 (P0) mice as previously described (Meffert et al., 2003) and were maintained in Neurobasal A medium (Gibco, 10888) with B27 Supplement (Gibco 17504-44). […] For live cell imaging, confocal images of hippocampal pyramidal neurons (excitatory, determined by morphology) in 0.24-0.3 μm Z sections were acquired using a 40×, 1.3 NA, EC Plan Neofluoar (whole cells) or a 100×, 1.4 NA Plan Apochromat oil immersion objective (dendrites) on a Yokogawa spinning disk system (Cell Observer, Carl Zeiss) at 37° C. in Tyrodes buffer (in mM: 119 NaCl, 5 KCl, 2 CaCl2, 0.2 MgCl2, Glucose, 25 Hepes, 0.01 Glycine, pH 7.4). […]

[2] = test system: cultured neurons; assay: 35S-labelling total protein synthesis; conditions: mock or BDNF 100 ng/mL 2 hours, Actinomycin-D
Description: Cultured neurons were pre-incubated in media containing reduced-serum and Actinomycin-D as previously described, followed by washing and incubation for 10 min with methionine- and cysteine-free DMEM (Mediatech, Inc.), and ^35S labeling in the same DMEM with the addition of ^355-methionine/cysteine (^35S Met/Cys EasyTag Mix, Perkin Elmer) to a final concentration of […]. Mock- or BDNF stimulation was for 2 hours. Cells were washed and lysed with lysis buffer (see immunoblotting). Lysates were centrifuged and collected supernatants subjected to Bradford assay. To assess newly synthesized proteins, 200-500 μg of lysates proteins were precipitated with 10% trichloroacetic acid (TCA) for 1 hour on ice in the presence of 0.5% deoxycholate (DOC) to remove interfering phenol red. After centrifugation, protein pellets were washed with ice-cold 95% ethanol, solubilized in denaturing buffer ([…] Tris pH 8.3, 5 mM EDTA, 0.05% SDS, 6M urea), and subjected to liquid scintillation counting (Econofluor, New England Nuclear, Inc.). ^35S Disintegration per minute (DPM) was used to quantitate protein synthesis after subtraction of background readings.

[3] = test system: BDNF targets; assay: Immunoblotting for BDNF target proteins with or without Actinomycin-D; conditions: Actinomycin-D 0.5 μg/mL added 10 min before stimulation
Description: […] Bath application of BDNF (100 ng/mL) was for designated periods (5 min-2 hours). The cultures were washed 3 times and harvested on ice with lysis buffer (50 mM Hepes, 150 mM NaCl, 10% Glycerol, 1 mM EDTA, 1% Triton-X-100, 0.2% SDS) plus freshly added protease inhibitor cocktail (Roche) and PMSF. Protein concentration was determined by Bradford Assay. If required, lysates were treated with Lambda Protein Phosphatase according to manufacturer's instructions (New England Biolabs P0753S). Equal amounts of lysate protein were resolved on SDS-PAGE gels, and electrotransferred to PVDF membrane. Membrane was blocked with 5% milk in Tris-buffered saline tween 20 (TBST) and probed with primary antibodies in 5% milk or BSA in TBST: GluR1 (Millipore AB1504), CaMKIIα (Zymed 13-7300), Homer2 (gift of P. Worley), KCC2 (Upstate 07-432), Kv1.1 (NeuroMab 73-007), β-tubulin (U. Iowa DSHB, clone E-7), GAPDH (gift of S. Snyder), GW182 (18033 gift of M. Fritzler or Abcam ab84403), Dcp1a (gift of J. Lykke-Andersen or NeuroMab clone3G4), phospho-ERK ½ (Sigma M 7802), Dicer (NeuroMab clone N167/7), TRBP (Abeam ab72110), Lin28a (Cell Signaling A177), Lin28b (gift of E. Moss or Cell Signaling 5422), Arc (SantaCruz 17839), mCherry (Clontech 632496), GFP (NeuroMab N86/8).

Structure (SMILES): CCn1cc(C(=O)O)c(=O)c2cc(F)c(N3CCNCC3)nc21 [Enoxacin, enoxacin]
- P-body numbers in neuronal soma and dendrites [1]: rapidly and robustly increased P-body numbers
- total protein synthesis (35S incorporation) [2]: did not alter basal or BDNF-induced total protein synthesis

Structure (SMILES): CCn1cc(C(=O)O)c(=O)c2cc3c(cc21)OCO3 [oxolinic acid]
- total protein synthesis (35S incorporation) [2]: does not alter total cellular protein synthesis

Structure (SMILES): Cc1c2oc3c(C)ccc(C(=O)N[C@@H]4C(=O)N[C@H](C(C)C)C(=O)N5CCC[C@H]5C(=O)N(C)CC(=O)N(C)[C@@H](C(C)C)C(=O)O[C@@H]4C)c3nc-2c(C(=O)N[C@@H]2C(=O)N[C@H](C(C)C)C(=O)N3CCC[C@H]3C(=O)N(C)CC(=O)N(C)[C@@H](C(C)C)C(=O)O[C@@H]2C)c(N)c1=O [Actinomycin-D] (I: T[dV]P[Sar][NMeV] / II: T[dV]P[Sar][NMeV]; ester I:1-I:C, II:1-II:C; linker I:N-II:N via Actinocin(9to1))
- BDNF-induced protein synthesis of BDNF targets [3]: does not alter BDNF-induced protein synthesis
